Assays:
OVCAR-5 = test: NCI cytotoxicity screen, Ovarian Cancer panel; assay type: cell-based; conditions: Homo sapiens, single dose 10 µM, negative = lethal, read-out: Percent growth inhibition
Method: (§1) Cytotoxicity was performed at National Cancer Institute (NCI), Bethesda, USA as per their protocols.

OVCAR-4 = test: NCI cytotoxicity screen, Ovarian Cancer panel; assay type: cell-based; conditions: Homo sapiens; OVCAR-4; single dose 10 µM; negative = lethal; read-out: Percent growth inhibition
Method: as §1

SK-OV-3 = test: NCI cytotoxicity screen, Ovarian Cancer panel; assay type: cell-based; conditions: Homo sapiens, single dose 10 µM, negative = lethal, read-out: Percent growth inhibition
Method: as §1

OVCAR-8 = test: NCI cytotoxicity screen, Ovarian Cancer panel; assay type: cell-based; conditions: Homo sapiens, single dose 10 µM, negative = lethal, read-out: Percent growth inhibition
Method: as §1

NCI/ADR-RES = test: NCI cytotoxicity screen, Ovarian Cancer panel; assay type: cell-based; conditions: Homo sapiens, single dose 10 µM, negative = lethal, read-out: Percent growth inhibition
Method: as §1

IGROV1 = test: NCI cytotoxicity screen, Ovarian Cancer panel; assay type: cell-based; conditions: Homo sapiens, IGROV-1, single dose 10 µM, negative = lethal, read-out: Percent growth inhibition
Method: as §1

ACHN = test: NCI cytotoxicity screen, Renal Cancer panel; assay type: cell-based; conditions: Homo sapiens, single dose 10 µM, negative = lethal, read-out: Percent growth inhibition
Method: as §1

SN12C = test: NCI cytotoxicity screen, Renal Cancer panel; assay type: cell-based; conditions: Homo sapiens, single dose 10 µM, negative = lethal, read-out: Percent growth inhibition
Method: as §1

CAKI-1 = test: NCI cytotoxicity screen, Renal Cancer panel; assay type: cell-based; conditions: Homo sapiens; CAKI-1; single dose 10 µM; negative = lethal; read-out: Percent growth inhibition
Method: as §1

A498 = test: NCI cytotoxicity screen, Renal Cancer panel; assay type: cell-based; conditions: Homo sapiens, single dose 10 µM, negative = lethal, read-out: Percent growth inhibition
Method: as §1

RXF 393 = test: NCI cytotoxicity screen, Renal Cancer panel; assay type: cell-based; conditions: Homo sapiens, single dose 10 µM, negative = lethal, read-out: Percent growth inhibition
Method: as §1

UO-31 = test: NCI cytotoxicity screen, Renal Cancer panel; assay type: cell-based; conditions: Homo sapiens, single dose 10 µM, negative = lethal, read-out: Percent growth inhibition
Method: as §1

[1] = Experimental log P, shake-flask method; assay type: physicochemical; conditions: n-octanol/phosphate buffer pH 7.4, read-out: Exp. Log P
Method: Partition coefficients or experimental log P values of all synthesized compounds (9–23, 30 and 31) were calculated using the shake-flask method. Log P values were determined using n-octanol and phosphate buffer (pH = 7.4) at 10:1 ratio of volumes. Stock solutions (10^−3 M) of compounds were prepared in DMSO. Glass vials were used to make final solutions i.e. stock solution (250 µL) and phosphate buffer (125 µL). To record the absorbance, wavelength was selected based on λmax of the respective compound. Initial absorbance (Ai) for every compound was noted consuming the stock solution in the buffer phase. Now added n-octanol to every vial and shaken well using a mechanical shaker for 50 minutes. To get separation of both phases, glass vials were centrifuged for 35 min. at 2500 rpm. Then, the layer of octanol was separated from glass vial. The final absorbance (Af) of each compound was recorded by using the buffer layer. The values of P for compounds were determined by the following equation (Eq. 8):8 P=Ai−Af/Af×Vw/Vo

OVCAR-3 = test: NCI cytotoxicity screen, Ovarian Cancer panel; assay type: cell-based, human; conditions: Homo sapiens; OVCAR-3; single dose 10 µM; negative = lethal; read-out: Percent growth inhibition
Method: as §1

DU-145 = test: NCI cytotoxicity screen, Prostate Cancer panel; assay type: cell-based, human; conditions: Homo sapiens, single dose 10 µM, negative = lethal, read-out: Percent growth inhibition
Method: as §1

PC-3 = test: NCI cytotoxicity screen, Prostate Cancer panel; assay type: cell-based, human; conditions: Homo sapiens, single dose 10 µM, negative = lethal, read-out: Percent growth inhibition
Method: as §1

HT29 = test: NCI cytotoxicity screen, Colon Cancer panel; assay type: cell-based; conditions: Homo sapiens, HT-29; HT29; single dose 10 µM; negative = lethal; read-out: Percent growth inhibition
Method: as §1

HCT-15 = test: NCI cytotoxicity screen, Colon Cancer panel; assay type: cell-based; conditions: Homo sapiens, single dose 10 µM, negative = lethal, read-out: Percent growth inhibition
Method: as §1

HCT-116 = test: NCI cytotoxicity screen, Colon Cancer panel; assay type: cell-based; conditions: Homo sapiens, single dose 10 µM, negative = lethal, read-out: Percent growth inhibition
Method: as §1

COLO 205 = test: NCI cytotoxicity screen, Colon Cancer panel; assay type: cell-based; conditions: Homo sapiens, single dose 10 µM, negative = lethal, read-out: Percent growth inhibition
Method: as §1

SR = test: NCI cytotoxicity screen, Leukemia panel; assay type: cell-based; conditions: Homo sapiens, single dose 10 µM, negative = lethal, read-out: Percent growth inhibition
Method: as §1

HL-60(TB) = test: NCI cytotoxicity screen, Leukemia panel; assay type: cell-based; conditions: Homo sapiens, HL-60, HL-60(TB); single dose 10 µM; negative = lethal; read-out: Percent growth inhibition
Method: as §1

CCRF-CEM = test: NCI cytotoxicity screen, Leukemia panel; assay type: cell-based; conditions: Homo sapiens, single dose 10 µM, negative = lethal, read-out: Percent growth inhibition
Method: as §1

MOLT-4 = test: NCI cytotoxicity screen, Leukemia panel; assay type: cell-based; conditions: Homo sapiens, MOLT-4, MOLT-4; single dose 10 µM; negative = lethal; read-out: Percent growth inhibition
Method: as §1

RPMI-8226 = test: NCI cytotoxicity screen, Leukemia panel; assay type: cell-based; conditions: Homo sapiens; RPMI-8226; single dose 10 µM; negative = lethal; read-out: Percent growth inhibition
Method: as §1

K-562 = test: NCI cytotoxicity screen, Leukemia panel; assay type: cell-based; conditions: Homo sapiens, K562; K-562; single dose 10 µM; negative = lethal; read-out: Percent growth inhibition
Method: as §1

MDA-MB-468 = test: NCI cytotoxicity screen, Breast Cancer panel; assay type: cell-based; conditions: Homo sapiens, single dose 10 µM, negative = lethal, read-out: Percent growth inhibition
Method: as §1

MDA-MB-231/ATCC = test: NCI cytotoxicity screen, Breast Cancer panel; assay type: cell-based; conditions: Homo sapiens, MDA-MB-231, read-out: Percent growth inhibition
Method: as §1

MCF7 = test: NCI cytotoxicity screen, Breast Cancer panel; assay type: cell-based; conditions: Homo sapiens, single dose 10 µM, negative = lethal, read-out: Percent growth inhibition
Method: as §1

HS 578 T = test: NCI cytotoxicity screen, Breast Cancer panel; assay type: cell-based; conditions: Homo sapiens; HS 578T; single dose 10 µM; negative = lethal; read-out: Percent growth inhibition
Method: as §1

T-47D = test: NCI cytotoxicity screen, Breast Cancer panel; assay type: cell-based; conditions: Homo sapiens, T47D, T-47D; single dose 10 µM; negative = lethal; read-out: Percent growth inhibition
Method: as §1

BT-549 = test: NCI cytotoxicity screen, Breast Cancer panel; assay type: cell-based; conditions: Homo sapiens, single dose 10 µM, negative = lethal, read-out: Percent growth inhibition
Method: as §1

HCC-2998 = test: NCI cytotoxicity screen, Colon Cancer panel; assay type: cell-based, human; conditions: Homo sapiens; HCC-2998; single dose 10 µM; negative = lethal; read-out: Percent growth inhibition
Method: as §1

A549/ATCC = test: NCI cytotoxicity screen, Non-Small Cell Lung Cancer panel; assay type: cell-based; conditions: Homo sapiens; A549/ATCC; single dose 10 µM; negative = lethal; read-out: Percent growth inhibition
Method: as §1

NCI-H460 = test: as above; assay type: cell-based; conditions: Homo sapiens, single dose 10 µM, negative = lethal, read-out: Percent growth inhibition
Method: as §1

HOP-62 = test: as above; assay type: cell-based; conditions: Homo sapiens, single dose 10 µM, negative = lethal, read-out: Percent growth inhibition
Method: as §1

EXVX = test: as above; assay type: cell-based; conditions: Homo sapiens; EXVX; single dose 10 µM; negative = lethal; read-out: Percent growth inhibition
Method: as §1

NCI-H23 = test: as above; assay type: cell-based, human; conditions: Homo sapiens, single dose 10 µM, negative = lethal, read-out: Percent growth inhibition
Method: as §1

NCI-H322M = test: as above; assay type: cell-based, human; conditions: Homo sapiens, single dose 10 µM, negative = lethal, read-out: Percent growth inhibition
Method: as §1

NCI-H226 = test: as above; assay type: cell-based, human; conditions: Homo sapiens, single dose 10 µM, negative = lethal, read-out: Percent growth inhibition
Method: as §1

NCI-522 = test: as above; assay type: cell-based, human; conditions: Homo sapiens; NCI-522; single dose 10 µM; negative = lethal; read-out: Percent growth inhibition
Method: as §1

For `c1ccc2c(-c3cn4ccnc4c(-c4ccc5c(c4)ncn5C4CCCCC4)n3)cccc2c1` [Compound 12, 8-(1-cyclohexyl-1H-benzo[d]imidazol-5-yl)-6-(naphthalen-1-yl)imidazo[1,2-a]pyrazine], the inhibition at 10 µM (OVCAR-5) was < 1%, the inhibition at 10 µM (OVCAR-4) was 15% and the inhibition at 10 µM (SK-OV-3) was < 1%. It also gave an inhibition at 10 µM (OVCAR-8) of 24%, an inhibition at 10 µM (NCI/ADR-RES) of 11.8% and an inhibition at 10 µM (IGROV1) of 3.68%. For the same compound, the inhibition at 10 µM (ACHN) was 8.22%, the inhibition at 10 µM (SN12C) was 13.6% and the inhibition at 10 µM (CAKI-1) was 20.7%. For the same compound, the inhibition at 10 µM (A498) was < 1%, the inhibition at 10 µM (RXF 393) was 0.15% and the inhibition at 10 µM (UO-31) was 37.9%. The logP [1] was 1.48, the inhibition at 10 µM (OVCAR-3) was 4.29% and the inhibition at 10 µM (DU-145) was 6.09%. The inhibition at 10 µM (PC-3) was 13.3%, the inhibition at 10 µM (HT29) was 16.5% and the inhibition at 10 µM (HCT-15) was 15.3%. The inhibition at 10 µM (HCT-116) was 23.7%, the inhibition at 10 µM (COLO 205) was < 1% and the melting point was 199 to 202 °C. It also gave an inhibition at 10 µM (SR) of 10.9%, an inhibition at 10 µM (HL-60(TB)) of ~50% and an inhibition at 10 µM (CCRF-CEM) of 27.2%. The inhibition at 10 µM (MOLT-4) was ~50%, the inhibition at 10 µM (RPMI-8226) was 38.2% and the inhibition at 10 µM (K-562) was 38%. For the same compound, the inhibition at 10 µM (MDA-MB-468) was 5.23%, the inhibition at 10 µM (MDA-MB-231/ATCC) was 18.2% and the inhibition at 10 µM (MCF7) was 35.7%. It also gave an inhibition at 10 µM (HS 578 T) of 4.25%, an inhibition at 10 µM (T-47D) of 22% and an inhibition at 10 µM (BT-549) of 1.57%. The inhibition at 10 µM (HCC-2998) was < 1%, the inhibition at 10 µM (A549/ATCC) was 36.2% and the inhibition at 10 µM (NCI-H460) was 7.35%. The inhibition at 10 µM (HOP-62) was 13.2%, the inhibition at 10 µM (EXVX) was 29.6% and the inhibition at 10 µM (NCI-H23) was 9.02%. It also gave an inhibition at 10 µM (NCI-H322M) of 8.38%, an inhibition at 10 µM (NCI-H226) of 17.9% and an inhibition at 10 µM (NCI-522) of 33%.

From article PMC7162861, “Synthesis, cytotoxicity, pharmacokinetic profile, binding with DNA and BSA of new imidazo[1,2-a]pyrazine-benzo[d]imidazol-5-yl hybrids” (Scientific Reports, 2020)
